Measurements from publication PMC11345830, “Exploration of Hydrazide-Based HDAC8 PROTACs for the Treatment of Hematological Malignancies and Solid Tumors” (Journal of Medicinal Chemistry, 2024).

Columns and labels:
Type in all cases: cell-based
HDAC11 = target: T1, HDAC11 (Homo sapiens, UniProt Q96DB2); assay: HDAC11 level in Jurkat cells, Western blot; details: 6 h
T1 construct: endogenous in cells; host or cells: Jurkat
T1 sequence (Q96DB2 1-347): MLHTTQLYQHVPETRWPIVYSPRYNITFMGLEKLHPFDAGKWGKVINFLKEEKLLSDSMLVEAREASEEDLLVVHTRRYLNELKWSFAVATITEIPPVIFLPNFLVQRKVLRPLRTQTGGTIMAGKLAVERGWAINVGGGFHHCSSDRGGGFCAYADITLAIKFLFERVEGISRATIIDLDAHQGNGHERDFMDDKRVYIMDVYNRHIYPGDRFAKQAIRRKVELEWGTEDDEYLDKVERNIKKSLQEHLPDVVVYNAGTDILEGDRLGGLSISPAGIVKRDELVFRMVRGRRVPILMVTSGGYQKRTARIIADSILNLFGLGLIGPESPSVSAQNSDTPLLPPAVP

HDAC6 = target: T2, HDAC6 (Homo sapiens, UniProt Q9UBN7); assay: HDAC6 level in HCT116 cells, Western blot; set-up: endogenous in cells; host or cells: HCT116; details: 6 h
T2 sequence (Q9UBN7 1-1215): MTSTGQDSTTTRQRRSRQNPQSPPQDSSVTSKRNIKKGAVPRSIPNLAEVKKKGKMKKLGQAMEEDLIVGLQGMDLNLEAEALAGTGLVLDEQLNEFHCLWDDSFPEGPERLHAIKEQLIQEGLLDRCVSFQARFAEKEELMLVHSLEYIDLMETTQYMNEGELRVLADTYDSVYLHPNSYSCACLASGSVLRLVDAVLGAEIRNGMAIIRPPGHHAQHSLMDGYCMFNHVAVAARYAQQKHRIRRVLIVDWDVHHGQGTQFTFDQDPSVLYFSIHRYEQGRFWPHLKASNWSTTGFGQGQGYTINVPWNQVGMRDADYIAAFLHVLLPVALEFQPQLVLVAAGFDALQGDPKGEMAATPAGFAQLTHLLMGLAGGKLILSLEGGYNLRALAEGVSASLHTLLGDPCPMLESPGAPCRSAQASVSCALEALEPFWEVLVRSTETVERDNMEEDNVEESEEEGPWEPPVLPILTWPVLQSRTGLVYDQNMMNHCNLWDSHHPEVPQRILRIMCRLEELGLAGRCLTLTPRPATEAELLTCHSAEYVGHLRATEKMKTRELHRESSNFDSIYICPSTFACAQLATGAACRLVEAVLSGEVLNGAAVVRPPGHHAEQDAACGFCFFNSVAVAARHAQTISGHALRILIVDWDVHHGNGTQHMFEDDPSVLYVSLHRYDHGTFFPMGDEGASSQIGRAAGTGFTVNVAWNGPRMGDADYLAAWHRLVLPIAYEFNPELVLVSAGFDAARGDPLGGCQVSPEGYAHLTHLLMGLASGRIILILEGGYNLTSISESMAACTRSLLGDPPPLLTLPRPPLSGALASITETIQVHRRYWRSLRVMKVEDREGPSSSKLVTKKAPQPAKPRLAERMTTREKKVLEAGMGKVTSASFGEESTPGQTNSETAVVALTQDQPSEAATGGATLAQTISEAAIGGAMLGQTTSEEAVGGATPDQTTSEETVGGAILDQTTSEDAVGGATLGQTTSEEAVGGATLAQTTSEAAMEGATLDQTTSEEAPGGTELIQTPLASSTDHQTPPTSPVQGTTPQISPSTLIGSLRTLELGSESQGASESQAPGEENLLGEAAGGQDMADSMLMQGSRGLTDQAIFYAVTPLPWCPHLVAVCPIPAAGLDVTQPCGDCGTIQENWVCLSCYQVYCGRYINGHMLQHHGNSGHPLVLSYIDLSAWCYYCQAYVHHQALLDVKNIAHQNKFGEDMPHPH

HEL cells = assay: Cell viability MTS assay, HEL; details: ratio of IC50 values
Procedure: MTS assay was used to measure the cell viability. For single treatment, Jurkat, THP-1 and HEL (8000 cells/well), HCT116 and A549 (2000 cells/well) were seeded in 96-well plates in 100 μL complete medium. After overnight incubation, 50 μL of media containing various concentrations of compounds or the vehicle were added to each well. For cotreatment, cells were seeded in 96-well plates in 50 μL complete medium. After overnight incubation, 50 μL of Z-VAD-FMK, Nec-1, Fer-1, CQ, and other indicated compounds were added to each well. One hour later, 50 μL of media containing various concentrations of compounds were added to each well. After 72 h of treatment, 20 μL of CellTiter 96 AQueous One Solution reagent (Promega, Madison, USA) was added to each well according to manufacturer’s protocol. Plates were incubated at 37 °C for 1–2 h. The absorbance was determined at a wavelength of 490 nm using a Synergy H1 plate reader (Biotek, Winooski, VT, USA).

HCT116 cells = assay: Lipid peroxidation detection (BODIPY 581/591 C11), HCT116; details: 24 h, low micromolar concentrations
Procedure: Jurkat cells (5 × 10^5), HCT116 cells (3 × 10^5) and THP-1 cells (5 × 10^5) were seeded on 6-well plates. The next day, cells were treated with indicated concentrations of compounds for 24 or 48 h. Then, cells were stained with 1.3 μM of BODIPY 581/591 C11 (Invitrogen, D3861) for another 1 h at 37 °C. Later, cells were harvested and washed three times with ice-cold PBS, followed by resuspended in FACS buffer (1% BSA in PBS). Lipid peroxidation was determined by NovoCyte Quanteon Flow Cytometer (Agilent Technologies, CA, USA).

CCCCCCNNC(=O)c1ccc(CNC(=O)CN2CCC(c3ccc(NC4CCC(=O)NC4=O)cc3)CC2)cc1 (stereo not shown) [Z16, 2-(4-(4-((2,6-Dioxopiperidin-3-yl)amino)phenyl)piperidin-1-yl)-N-(4-(2-hexylhydrazine-1-carbonyl)benzyl)acetamide]
HDAC11 degradation (in words) (HDAC11): no obvious
impact on HDAC6 (in words) (HDAC6): without significant impact
less potent than SAHA against HEL cells (HEL cells): about 10 fold
lipid peroxidation (in words) (HCT116 cells): induced lipid peroxidation in a dose-dependent manner
